Laboratory results: US9513294B2, “Megastokes amino-triazolyl-BODIPY compounds and applications to live neuron staining and human serum albumin FA1 drug site probing” (National University of Singapore, priority 2012, dated 2016)

Assays:
[1] = Absorbance and fluorescence emission spectra (SpectraMax M2); format: physicochemical; details: for λmax Abs. (nm) / λmax Em. (nm): MKAC compound library; for λmax Abs. (nm) / λmax Absorp. (nm): absorbance maximum; for λmax Em. (nm) / λmax Emission (nm): fluorescence emission maximum; for λmax Absorp. (nm) / λmax Emission (nm): MKCA compound library
Procedure, shortened: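 Spectroscopic data, including quantum yields, were recorded with a SpectraMax M2 instrument and analysed in GraphPrism.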

[2] = Quantum yield measurements versus Acridine Yellow in EtOH; format: physicochemical; details: for φ (quantum yield): excitation 460 nm; for φ (%): quantum yield
Procedure, shortened: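 Emission areas integrated over 510–700 nm were compared with Acridine Yellow in ethanol (Φ=0.47), all excited at 460 nm. The comparative equation was normalized to excitation-wavelength absorbance and solvent refractive index.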

λmax Abs. (nm) [1] [nm] | λmax Em. (nm) [1] [nm] | φ (%) ([2]; MKAC compound library) | SMILES | other results
– | – | – | CC(C)Cc1cn(-c2ccc3n2[B-](F)(F)[N+]2=C(N4CCc5ccccc5C4)C=CC2=C3c2ccc(N)cc2)nn1 [MK66-43] | λmax Absorp. ([1]; MK library, Table 5): 480 nm; λmax Emission ([1]; MK library, Table 5): 582 nm; φ (quantum yield) ([2]; MK library, Table 5): 0.14%
466 | 562 | 26.84 | CC(=O)Nc1ccc(C2=C3C=CC(NCc4cc(F)cc(F)c4)=[N+]3[B-](F)(F)n3c2ccc3-n2cc(C3CC3)nn2)cc1 [MKAC412-4] | –
466 | 582 | 5.45 | CC(=O)Nc1ccc(C2=C3C=CC(N(C)Cc4ccccc4)=[N+]3[B-](F)(F)n3c2ccc3-n2cc(C3CC3)nn2)cc1 [MKAC195-4] | –
– | – | – | CCOc1ccccc1CNC1=[N+]2C(=C(c3ccc(NC(=O)CCl)cc3)c3ccc(-n4cc(CO)nn4)n3[B-]2(F)F)C=C1 [MKCA103-70] | λmax Absorp. (nm) [1]: 463 nm; λmax Emission (nm) [1]: 563 nm; φ (%) ([2]; MKCA compound library): 20.22%
– | – | – | O=C(CCl)Nc1ccc(C2=C3C=CC(N4CCc5ccccc5C4)=[N+]3[B-](F)(F)n3c2ccc3-n2cc(CO)nn2)cc1 [MKCA66-70] | λmax Absorp. (nm) [1]: 468 nm; λmax Emission (nm) [1]: 581 nm; φ (%) ([2]; MKCA compound library): 2.61%
465 | 564 | 13.98 | COc1ccc(OC)c(CNC2=[N+]3C(=C(c4ccc(NC(C)=O)cc4)c4ccc(-n5cc(CC6CCCCC6)nn5)n4[B-]3(F)F)C=C2)c1 [MKAC181-8] | –
464 | 565 | 24.86 | CCOc1ccccc1CNC1=[N+]2C(=C(c3ccc(NC(C)=O)cc3)c3ccc(-n4cc(C5CC5)nn4)n3[B-]2(F)F)C=C1 [MKAC103-4] | –
461 | 566 | 2.70 | CCCc1cn(-c2ccc3n2[B-](F)(F)[N+]2=C(N4CCCC4)C=CC2=C3c2ccc(NC(C)=O)cc2)nn1 [MKAC215-48] | –
– | – | – | CCCCCCCc1cn(-c2ccc3n2[B-](F)(F)[N+]2=C(N4CCCCC4)C=CC2=C3c2ccc(NC(=O)CCl)cc2)nn1 [BDCCA-50] | λmax Absorp. ([1]; BDCCA library, Table 4): 466 nm; λmax Emission ([1]; BDCCA library, Table 4): 568 nm; φ (quantum yield) ([2]; BDCCA library, Table 4): 1.0%
– | – | – | CCOc1ccccc1CNC1=[N+]2C(=C(c3ccc(NC(=O)CCl)cc3)c3ccc(-n4cc(CC(C)C)nn4)n3[B-]2(F)F)C=C1 [MKCA103-43] | λmax Absorp. (nm) [1]: 465 nm; λmax Emission (nm) [1]: 563 nm; φ (%) ([2]; MKCA compound library): 33.76%
– | – | – | Cc1ccccc1CNC1=[N+]2C(=C(c3ccc(N)cc3)c3ccc(-n4cc(C5CC5)nn4)n3[B-]2(F)F)C=C1 [MK101-4] | λmax Absorp. ([1]; MK library, Table 5): 474 nm; λmax Emission ([1]; MK library, Table 5): 566 nm; φ (quantum yield) ([2]; MK library, Table 5): 0.70%
467 | 562 | 24.16 | CC(=O)Nc1ccc(C2=C3C=CC(NCc4cc(F)cc(F)c4)=[N+]3[B-](F)(F)n3c2ccc3-n2cc(CCc3ccccc3)nn2)cc1 [MKAC412-19] | –
467 | 579 | 3.12 | CC(=O)Nc1ccc(C2=C3C=CC(N4CC(C)OC(C)C4)=[N+]3[B-](F)(F)n3c2ccc3-n2cc(CCc3ccccc3)nn2)cc1 (stereo not drawn) [MKAC20-19] | –
470 | 583 | 1.96 | CC(=O)Nc1ccc(C2=C3C=CC(N4CCc5ccccc5C4)=[N+]3[B-](F)(F)n3c2ccc3-n2cc(C3CCCC3)nn2)cc1 [MKAC66-5] | –
465 | 559 | 15.37 | COc1ccc(OC)c(CNC2=[N+]3C(=C(c4ccc(NC(C)=O)cc4)c4ccc(-n5cc(CO)nn5)n4[B-]3(F)F)C=C2)c1 [MKAC181-70] | –
– | – | – | Nc1ccc(C2=C3C=CC(N4CCCCC4)=[N+]3[B-](F)(F)n3c2ccc3-n2cc(-c3ccc(F)c(F)c3)nn2)cc1 [BDC-16] | λmax Absorp. ([1]; BDC library, Table 2): 471 nm; λmax Emission ([1]; BDC library, Table 2): 585 nm; φ (quantum yield) ([2]; BDC library, Table 2): 0.18%
462 | 568 | 1.17 | CC(=O)Nc1ccc(C2=C3C=CC(N4CCCC4)=[N+]3[B-](F)(F)n3c2ccc3-n2cc(CC3CCCCC3)nn2)cc1 [MKAC215-8] | –
– | – | – | Nc1ccc(C2=C3C=CC(N4CCCCC4)=[N+]3[B-](F)(F)n3c2ccc3-n2cc(C3CC3)nn2)cc1 [BDC-4] | λmax Absorp. ([1]; BDC library, Table 2): 475 nm; λmax Emission ([1]; BDC library, Table 2): 590 nm; φ (quantum yield) ([2]; BDC library, Table 2): 0.16%
– | – | – | CC(C)Cc1cn(-c2ccc3n2[B-](F)(F)[N+]2=C(N4CCCC4)C=CC2=C3c2ccc(NC(=O)CCl)cc2)nn1 [MKCA215-43] | λmax Absorp. (nm) [1]: 461 nm; λmax Emission (nm) [1]: 570 nm; φ (%) ([2]; MKCA compound library): 4.04%
– | – | – | CCCCCC(O)c1cn(-c2ccc3n2[B-](F)(F)[N+]2=C(NCc4cc(F)cc(F)c4)C=CC2=C3c2ccc(N)cc2)nn1 (stereo not drawn) [MK412-69] | λmax Absorp. ([1]; MK library, Table 5): 476 nm; λmax Emission ([1]; MK library, Table 5): 563 nm; φ (quantum yield) ([2]; MK library, Table 5): 1.98%
